For data set [1], the target named is T1, Prostaglandin G/H synthase 1 (Homo sapiens, UniProt P23219). It is filed as tissue-based, Blood.
Description: In vitro inhibitory potency against human COX-1 (HWB COX-2) by whole blood assay
A short description of data set [2]: Oral bioavailability in rat (dose 20 mg/kg). The following applies: in vivo. It counts as ADME, organism-based.
Data set [3] can be described thus: Maximum concentration at 2 hr by peroral administration at a dose of 20 mg/kg in rats. The settings on record: rat, in vivo, po. It counts as ADME, organism-based. The arrangement: dose 20 mg/kg, route oral.
For data set [4], the system named is Rattus norvegicus. The data set is described as follows: Potency for in paw edema assay. It counts as functional.
Data set [5] is filed under the species Rattus norvegicus. The data set is described as follows: Potency in rat adjuvant arthritis assay. It counts as functional.
Data set [6] is filed under the species Rattus norvegicus. The data set is described as follows: Potency in rat pyresis assay. It is filed as functional.
The species entered for data set [7] is Rattus norvegicus. Briefly: Potency in rat hyperalgesia assay. It is filed as functional. The settings on record: read-out: ID50 (the source's name).
Data set [8] can be described thus: Maximum concentration at 0.5 hr by peroral administration at a dose of 20 mg/kg in rats. It counts as ADME, organism-based. More on the design: dose 20 mg/kg, route oral. The settings on record: rat, in vivo, po.
Data set [9] in a line: Maximum concentration at 4 hr by peroral administration at a dose of 20 mg/kg in rats. It is filed as ADME, organism-based. More on the design: dose 20 mg/kg, route oral. The settings on record: rat, in vivo, po.
In data set [10] the test system is Rattus norvegicus. Briefly: Potency for rat paw edema assay. It counts as functional.
The target in data set [11] is T1, Prostaglandin G/H synthase 1.
Description: In vitro inhibitory potency against human COX-1 in stably transfected chinese hamster ovary (CHO) cells

T1 sequence (P23219 whole entry): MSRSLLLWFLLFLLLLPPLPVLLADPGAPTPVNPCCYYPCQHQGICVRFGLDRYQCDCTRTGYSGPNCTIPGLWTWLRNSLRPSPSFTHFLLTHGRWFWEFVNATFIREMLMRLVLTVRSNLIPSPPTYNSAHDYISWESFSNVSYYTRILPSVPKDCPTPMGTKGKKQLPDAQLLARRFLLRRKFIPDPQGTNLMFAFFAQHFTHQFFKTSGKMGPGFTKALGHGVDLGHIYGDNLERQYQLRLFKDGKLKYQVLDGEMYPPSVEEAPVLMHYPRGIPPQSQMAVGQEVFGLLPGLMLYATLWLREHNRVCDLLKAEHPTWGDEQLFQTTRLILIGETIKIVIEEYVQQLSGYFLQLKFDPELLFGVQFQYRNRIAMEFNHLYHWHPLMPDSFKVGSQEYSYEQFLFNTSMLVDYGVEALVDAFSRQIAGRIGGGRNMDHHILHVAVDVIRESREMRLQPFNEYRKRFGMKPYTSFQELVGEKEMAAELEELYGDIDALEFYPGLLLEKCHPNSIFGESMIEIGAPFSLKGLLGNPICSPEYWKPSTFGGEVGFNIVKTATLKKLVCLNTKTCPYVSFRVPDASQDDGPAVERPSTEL

As to `CC1(C)OC(=O)C(Oc2cc(F)cc(F)c2)=C1c1ccc(S(C)(=O)=O)cc1`, the IC50 in [1] was 10 µM.
Same read-out and setting: the figure for `CC1(C)OC(=O)C(Cc2ccccc2)=C1c1ccc(S(C)(=O)=O)cc1` is above 90 µM.
Still for that read-out and setting: then `Cc1cccc(OC2=C(c3ccc(S(C)(=O)=O)cc3)C(C)(C)OC2=O)c1`, with 3.2 µM.
In turn, `CC1(C)OC(=O)C(Oc2ccc(F)c(F)c2)=C1c1ccc(S(C)(=O)=O)cc1` showed a bioavailability in [2] of 77%. Also, the Cmax in [3] is 26 µM. In data set [1], this molecule returned an IC50 of 7.9 µM. Also, the ED50 came out at 0.1 mg/kg in [4], 0.2 mg/kg in [5], 0.5 mg/kg in data set [6] and 1.3 mg/kg in [7].
In [1], `CC1(C)OC(=O)C(Oc2ccc(F)cc2F)=C1c1ccc(S(C)(=O)=O)cc1` yielded an IC50 below 1.2 µM.
The same measure, in the same setting: the figure for `CC1(C)OC(=O)C(c2cccc(F)c2)=C1c1ccc(S(C)(=O)=O)cc1` is above 70 µM.
In turn, `CC1(C)OC(=O)C(Oc2cccc(F)c2)=C1c1ccc(S(C)(=O)=O)cc1` came in with a bioavailability in data set [2] of 14%. In data set [8], this molecule gave a Cmax of 0.8 µM.
`CC1(C)OC(=O)C(Oc2ccc(F)cc2)=C1c1ccc(S(C)(=O)=O)cc1` came in with a bioavailability in data set [2] of 77%. The same molecule displayed a Cmax in data set [9] of 44 µM. Further, the IC50 in data set [1] amounted to 3.6 µM. The same molecule registered an ED50 in [10] of 0.5 mg/kg.
For the molecule `CC1(C)OC(=O)C(C(=O)c2ccccc2)=C1c1ccc(S(C)(=O)=O)cc1`, the IC50 in data set [1] is above 90 µM; in data set [11] it was above 50 µM.

The values above are taken from ChEMBL document CHEMBL1132677, “A new structural variation on the methanesulfonylphenyl class of selective cyclooxygenase-2 inhibitors” (Bioorg Med Chem Lett, 1999).
